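GI50 is the concentration that inhibits growth by half. Definition used: TGI = concentration required for complete inhibition of growth.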
Experiments:
Assay in all cases: NCI-60 cell line screen, 384-well format
[1] = system: 786-0 renal
[2] = system: A498 renal
[3] = system: A549 NSCLC
[4] = system: ACHN renal
[5] = system: BT-549 breast
[6] = system: CAKI-1 renal
[7] = system: CCRF-CEM leukemia
[8] = system: DU-145 prostate
[9] = system: EKVX NSCLC
[10] = system: HCT-116 colon
[11] = system: HCT-15 colon
[12] = system: HL-60(TB) leukemia
[13] = system: HOP-62 NSCLC
[14] = system: HOP-92 NSCLC
[15] = system: HS 578T breast
[16] = system: HT29 colon
[17] = system: IGROV1 ovarian
[18] = system: K-562 leukemia
[19] = system: KM12 colon
[20] = system: LOX IMVI melanoma
[21] = system: M14 melanoma
[22] = system: MALME-3M melanoma
[23] = system: MCF7 breast
[24] = system: MDA-MB-231 breast
[25] = system: MDA-MB-435 melanoma
[26] = system: MDA-MB-468 breast
[27] = system: MOLT-4 leukemia
[28] = system: NCI-H226 lung
[29] = system: NCI-H23 lung
[30] = system: NCI-H322M lung
[31] = system: NCI-H522 lung
[32] = system: NCI/ADR-RES ovarian
[33] = system: OVCAR-3 ovarian
[34] = system: OVCAR-4 ovarian
[35] = system: OVCAR-5 ovarian
[36] = system: OVCAR-8 ovarian
[37] = system: PC-3 prostate
[38] = system: RPMI-8226 leukemia
[39] = system: RXF 393 renal
[40] = system: SF-268 CNS
[41] = system: SF-295 CNS
[42] = system: SF-539 CNS
[43] = system: SK-MEL-2 melanoma
[44] = system: SK-MEL-28 melanoma
[45] = system: SK-OV-3 ovarian
[46] = system: SN12C renal
[47] = system: SNB-19 CNS
[48] = system: SNB-75 CNS
[49] = system: SW-620 colon
[50] = system: T-47D breast
[51] = system: TK-10 renal
[52] = system: U251 glioblastoma
[53] = system: UACC-257 melanoma
[54] = system: UACC-62 melanoma
[55] = system: UO-31 renal

In the case of `OCC1OC(n2cnc3c2NC=NC[C@H]3O)CC1O` (stereo not given in full), the GI50 [1] is reported as over 100 µM, the TGI [1] is reported as over 100 µM and the GI50 [2] is reported as over 100 µM. For the same molecule, the TGI [2] was over 100 µM, the GI50 [3] was over 100 µM and the TGI [3] was over 100 µM. It also gave a GI50 [4] of over 100 µM, a TGI [4] of over 100 µM and a GI50 [5] of over 100 µM. The TGI [5] was over 100 µM, the GI50 [6] was over 100 µM and the TGI [6] was over 100 µM. The GI50 [7] was over 100 µM, the TGI [7] was over 100 µM and the GI50 [8] was over 100 µM. The TGI [8] was over 100 µM, the GI50 [9] was over 100 µM and the TGI [9] was over 100 µM. It also gave a GI50 [10] of over 100 µM, a TGI [10] of over 100 µM and a GI50 [11] of over 100 µM. It also gave a TGI [11] of over 100 µM, a GI50 [12] of over 100 µM and a TGI [12] of over 100 µM. The GI50 [13] was over 100 µM, the TGI [13] was over 100 µM and the GI50 [14] was over 100 µM. The TGI [14] was over 100 µM, the GI50 [15] was over 100 µM and the TGI [15] was over 100 µM. For the same molecule, the GI50 [16] was over 100 µM, the TGI [16] was over 100 µM and the GI50 [17] was over 100 µM. For the same molecule, the TGI [17] was over 100 µM, the GI50 [18] was over 100 µM and the TGI [18] was over 100 µM. For the same molecule, the GI50 [19] was over 100 µM, the TGI [19] was over 100 µM and the GI50 [20] was over 100 µM. For the same molecule, the TGI [20] was over 100 µM, the GI50 [21] was over 100 µM and the TGI [21] was over 100 µM. The GI50 [22] was over 100 µM, the TGI [22] was over 100 µM and the GI50 [23] was over 100 µM. It also gave a TGI [23] of over 100 µM, a GI50 [24] of over 100 µM and a TGI [24] of over 100 µM. For the same molecule, the GI50 [25] was over 100 µM, the TGI [25] was over 100 µM and the GI50 [26] was over 100 µM. It also gave a TGI [26] of over 100 µM, a GI50 [27] of over 100 µM and a TGI [27] of over 100 µM. It also gave a GI50 [28] of over 100 µM, a TGI [28] of over 100 µM and a GI50 [29] of over 100 µM. It also gave a TGI [29] of over 100 µM, a GI50 [30] of over 100 µM and a TGI [30] of over 100 µM. It also gave a GI50 [31] of over 100 µM, a TGI [31] of over 100 µM and a GI50 [32] of over 100 µM. The TGI [32] was over 100 µM, the GI50 [33] was over 100 µM and the TGI [33] was over 100 µM. It also gave a GI50 [34] of over 100 µM, a TGI [34] of over 100 µM and a GI50 [35] of over 100 µM. The TGI [35] was over 100 µM, the GI50 [36] was over 100 µM and the TGI [36] was over 100 µM. The GI50 [37] was over 100 µM, the TGI [37] was over 100 µM and the GI50 [38] was over 100 µM. For the same molecule, the TGI [38] was over 100 µM, the GI50 [39] was over 100 µM and the TGI [39] was over 100 µM. The GI50 [40] was over 100 µM, the TGI [40] was over 100 µM and the GI50 [41] was over 100 µM. It also gave a TGI [41] of over 100 µM, a GI50 [42] of over 100 µM and a TGI [42] of over 100 µM. For the same molecule, the GI50 [43] was over 100 µM, the TGI [43] was over 100 µM and the GI50 [44] was over 100 µM. The TGI [44] was over 100 µM, the GI50 [45] was over 100 µM and the TGI [45] was over 100 µM. It also gave a GI50 [46] of over 100 µM, a TGI [46] of over 100 µM and a GI50 [47] of over 100 µM. It also gave a TGI [47] of over 100 µM, a GI50 [48] of over 100 µM and a TGI [48] of over 100 µM. For the same molecule, the GI50 [49] was over 100 µM, the TGI [49] was over 100 µM and the GI50 [50] was over 100 µM. It also gave a TGI [50] of over 100 µM, a GI50 [51] of over 100 µM and a TGI [51] of over 100 µM. It also gave a GI50 [52] of over 100 µM, a TGI [52] of over 100 µM and a GI50 [53] of over 100 µM. It also gave a TGI [53] of over 100 µM, a GI50 [54] of over 100 µM and a TGI [54] of over 100 µM. For the same molecule, the GI50 [55] was over 100 µM and the TGI [55] was over 100 µM.

Source: PubChem BioAssay (NCI)
